In patent US20110224182A1, “SALTS OF (3-0-(3',3'-[…]) BETULINIC ACID AND SOLID STATE FORMS THEREOF” (Myriad Pharmaceuticals, Incorporated, priority 2007, published 2011):
Converted amounts (≈) assume the structure as drawn. Like-named read-outs stand apart in the source and are kept apart here.

What was measured:
[1] = In vivo pharmacokinetic studies (Method H), plasma levels by LC-MS/MS; design: species or system male Sprague-Dawley rats; conditions: rat; for Mean plasma concentration: as free drug
Protocol: Method H—In Vivo Pharmacokinetic Studies
In vivo experiments were conducted in male Sprague-Dawley rats having a body mass of 225 g to 275 g with an appropriate cannula surgically inserted. Rats were supplied food and water ad libitum until 12 hours before dosing when food was removed. Food was withheld until four hours post-dosing. Water was available ad libitum. Each of group of rats consisted of 3 rats.
Dosing solutions were prepared the same day as dose administration. […] The administered dose of each salt was 1 mg/kg for intravenous administration and 10 mg/kg for oral gavage. Formulations for intravenous administration were filtered after preparation. Concentrations of respective dosing solutions were as depicted in Table 1 below.
Sampling was performed at predose, 2, 5, 15, and 30 minutes, 1, 2, 4, and 8 hours post dose. Blood samples were collected, placed into chilled tubes containing sodium heparin, and kept chilled until centrifuged at 4° C. at 13,000 rpm for 5 minutes. Plasma was separated and stored at −60° C. to −80° C. until analyzed.
Plasma levels of the compounds were determined by LC-MS/MS. Quantification of the compounds in plasma was performed against a calibration curve generated by serial dilution of a test article DMSO stock solution into blank heparinized rat plasma (50, 100, 200, 500, 1,000, 2,000, 5,000, and 10,000 ng/mL final concentrations of free drug). Quality control samples were prepared in the same fashion (250, 1,000, and 5,000 ng/mL final concentrations of free drug). The standard curve and quality control DMSO stock solutions were derived from independent weightings.
Plasma concentrations versus time data are plotted in FIGS. 26 through 37.
All data are expressed as ng/mL of the free drug. Samples that were below the limit of quantification (“bloq”) were assigned a value of zero for the mean concentration calculations.

[2] = Solubility (Method B): solvent added in portions until a clear solution is obtained; format: physicochemical; conditions: ambient temperature
Protocol: Method B-Solubility Measurement of the water solubility of the salts of this invention is accomplished by using methods well known to those skilled in the art. Specifically, to a weighed amount of DSB (+)-[…], DSB choline […], DSB diethanolamine […], or DSB diethylamine […], a solvent is added in small portions until a clear solution is obtained. The total volume of the solution is measured. The solubility of the particular DSB salt, in mg/mL, is calculated by dividing the weight of the salt (in mg), by the volume of the solution (in mL).

[3] = oral gavage 10 mg/kg, 0.083 h post dose
[4] = oral gavage 10 mg/kg, 0.25 h post dose
[5] = oral gavage 10 mg/kg, 0.5 h post dose
[6] = oral gavage 10 mg/kg, 1 h post dose
[7] = oral gavage 10 mg/kg, 2 h post dose
[8] = oral gavage 10 mg/kg, 4 h post dose
[9] = oral gavage 10 mg/kg, 8 h post dose
[10] = oral gavage 10 mg/kg, relative to DSB-2 NMG intravenous

| Compound | Mean plasma concentration [1, 3] [ng/mL] | Mean plasma concentration [1, 4] [ng/mL] | Mean plasma concentration [1, 5] [ng/mL] | Mean plasma concentration [1, 6] [ng/mL] | Mean plasma concentration [1, 7] [ng/mL] | Mean plasma concentration [1, 8] [ng/mL] | Mean plasma concentration [1, 9] [ng/mL] | AUC24 h ([1]; oral gavage 10 mg/kg, mean) [ng·h/mL] | Cmax ([1]; oral gavage 10 mg/kg, mean) [ng/mL] | Tmax ([1]; oral gavage 10 mg/kg, mean) [min] | % Bioavailability [1, 10] [%] | other results |
| --- | --- | --- | --- | --- | --- | --- | --- | --- | --- | --- | --- | --- |
| bis-choline salt of DSB [DSB-2 Choline] | – | – | – | – | – | – | – | – | – | – | – | % Bioavailability ([1]; in vivo, 10 mg/kg): 30.3%; AUC24 h ([1]; in vivo, po, 10 mg/kg): 20872.2 ng·h/mL |
| C=C(C)[C@@H]1CC[C@]2(C(=O)O)CC[C@]3(C)[C@H](CC[C@@H]4[C@@]5(C)CC[C@H](OC(=O)CC(C)(C)C(=O)O)C(C)(C)[C@@H]5CC[C@]43C)[C@@H]12.OCCNCCO.OCCNCCO [DSB-2 Diethanolamine, diethanolamine disalt of DSB] | 880.7 | 5190.0 | 5743.3 | 5873.3 | 4730.0 | 1830.0 | 1149.3 | 30958.7 | 6720.0 | 72 | 44.9 | – |
| C=C(C)[C@@H]1CC[C@]2(C(=O)O)CC[C@]3(C)[C@H](CC[C@@H]4[C@@]5(C)CC[C@H](OC(=O)CC(C)(C)C(=O)O)C(C)(C)[C@@H]5CC[C@]43C)[C@@H]12.CNC[C@H](O)[C@@H](O)[C@H](O)[C@H](O)CO.CNC[C@H](O)[C@@H](O)[C@H](O)[C@H](O)CO [DSB-2 NMG, reference compound] | 491.0 | 3706.7 | 3246.7 | 3236.7 | 1973.7 | 1662.3 | 635.7 | 18041.1 | 4480.0 | 96 | 26.2 | % Bioavailability ([1]; intravenous 1 mg/kg (reference)): 100.0%; AUC24 h ([1]; intravenous 1 mg/kg, mean): 6890.6 ng·h/mL; Cmax ([1]; intravenous 1 mg/kg, mean): 13785.9 ng/mL; Tmax ([1]; intravenous 1 mg/kg, mean): 0 min |
| C=C(C)[C@@H]1CC[C@]2(C(=O)O)CC[C@]3(C)[C@H](CC[C@@H]4[C@@]5(C)CC[C@H](OC(=O)CC(C)(C)C(=O)O)C(C)(C)[C@@H]5CC[C@]43C)[C@@H]12 [DSB Free Acid, 3-O-(3′,3′-dimethylsuccinyl)betulinic acid] | – | – | – | – | – | – | – | – | – | – | – | solubility ([2]; 1-propanol, organic solvent or mixture, thermodynamic from solid, 1-propanol, read-out: Solubility in 1-propanol): 6000 µg/mL (≈ 10.3 mM); solubility ([2]; 2,2,2-trifluoroethanol, organic solvent or mixture, thermodynamic from solid, 2,2,2-trifluoroethanol, read-out: Solubility in 2,2,2-trifluoroethanol): 2500 µg/mL (≈ 4.27 mM); solubility ([2]; 2-propanol, organic solvent or mixture, thermodynamic from solid, 2-propanol, read-out: Solubility in 2-propanol): 6000 µg/mL (≈ 10.3 mM); solubility ([2]; ethanol, organic solvent or mixture, thermodynamic from solid, ethanol, read-out: Solubility in ethanol): 15000 µg/mL (≈ 25.6 mM); solubility ([2]; methanol, organic solvent or mixture, thermodynamic from solid, methanol, read-out: Solubility in methanol): 7500 µg/mL (≈ 12.8 mM); solubility ([2]; water, thermodynamic from solid, water, read-out: Solubility in water): 350 µg/mL (≈ 0.598 mM) |
| bis-(+)-arginine salt of DSB [DSB-2 (+)-Arginine] | 2003.3 | 6796.7 | 6140.0 | 5793.3 | 4590.0 | 1615.3 | 532.3 | 24342.9 | 7093.3 | 19.8 | 35.3 | – |
| 3-O-(3′,3′-dimethylsuccinyl)betulinic acid, bis-diethylamine salt [DSB-2 Diethylamine] | 352.7 | 4576.7 | 7420.0 | 6873.3 | 3750.0 | 1886.7 | 233.7 | 21172.3 | 7453.3 | 40.2 | 30.7 | – |
